1 molecule from patent publication US20220331310A1, “METHODS FOR ALLEVIATING PTERYGIUM-ASSOCIATED WORRY ABOUT EYE APPEARANCE” (Cloudbreak Therapeutics, LLC, priority 2019, published 2022) can be followed below.

The test system of the assay is Patients with Primary or Recurrent Pterygium. Kind of assay: Phase 2a vehicle-controlled study of nintedanib ophthalmic solution; patient questionnaire on symptoms and life impacts (1-5 scale). Type of assay: in vivo, human. The conditions noted are these: 0.2% nintedanib ophthalmic solution, topical ocular, TID for 28 days, versus vehicle. How it is done: A Phase 2a Multicenter, Randomized, Vehicle-Controlled, Dose Escalating Study to Evaluate the Safety, Efficacy and Pharmacokinetics of Nintedanib Ophthalmic Solution in Patients with Primary or Recurrent Pterygium
Objectives of the study were to evaluate ocular and systemic safety of nintedanib and its efficacy in reducing pterygium vascularity in primary or recurrent patients. Several other secondary endpoints were also assessed, including the assessment of symptoms and life impacts by using a questionnaire based on a numerical 1-5 scale. The double-masked, vehicle-controlled, parallel study was conducted with 28 days TID repeat ocular dosing of vehicle and 0.2% nintedanib.
The disclosure focused on the relevant questionnaire endpoint that included 15 questions regarding the ocular symptoms, vision related functioning and the impact on life quality in patients. The questionnaire was derived from the validated Visual Functioning Questionnaire-25 (VFQ-25) (National Eye Institute, 2000) and the validated Ocular Surface Disease Index (OSDI) questionnaire (Schiffman R M, Christianson M D, Jacobsen G, Hirsch J D, Reis B L. Reliability and validity of the Ocular Surface Disease Index. Arch Ophthalmol. 2000; 118 (5): 615-621.). The patients were asked to rate severity using a 5-point scale, with 5 being the most severe.

`COC(=O)c1ccc2c(c1)NC(=O)/C2=C(\Nc1ccc(N(C)C(=O)CN2CCN(C)CC2)cc1)c1ccccc1` [nintedanib]: the “frequency of worry about eye appearance (question "Worry about eye appearance?", change of questionnaire score)” value (5-point scale, 5 most severe, FIG. 1) is given as “significantly better improvements than the vehicle group”. Also, where the note is “15-question questionnaire derived from VFQ-25 and OSDI”, the “questionnaire questions showing a significant difference between drug and vehicle” value is recorded as “only one out of fifteen questions showed a significant difference”.
